For orientation: IC50 means the point on the concentration scale where inhibition reaches its midpoint.

The subject of data set [1] is MDA-MB-231 breast cancer cells. Nature of the data set: MTT cell viability / cytotoxic activity. It is filed as cell-based. As to conditions: MDA-MB-231, MTT, mean ± SD of two independent experiments. As for the experimental part:
MDA-MB-231 breast cancer cells were purchased from American Type Culture Collection (ATCC, HTB-26). Cells were cultured in DMEM medium supplemented with 10% fetal bovine serum (FBS) and incubated at 37 °C in a humidified 5% CO2 atmosphere. Na[o-COSAN] stock solutions at 1 mM were prepared in DMEM medium without supplements and kept at -20 °C. Cell viability was assessed using the MTT assay following a method similar to the one previously described. Briefly, MDA-MB-231 cells (0.8 − 5 × 10^4 cells/well) were seeded in 96-well plates and left to adhere. After 24 h, cells were incubated with increasing concentrations of Na[o-COSAN] from 1 µM to 1000 µM for 6 and 24 h. After incubation, the medium was removed, and each well was incubated with an MTT solution (0.5 mg/mL in medium) for 3 h at 37 °C. Then, the medium was discarded, and the formazan crystals were solubilized in 200 µL DMSO. Absorbance was measured at 570 nm using an Varioskan TM LUX microplate reader (Thermo Scientific, Waltham, MA, USA). The dose-response curve fit of the absorbance as a function of log10[concentration] was performed using GraphPad Prism software (version 9.5.1) to assess viability and IC50 (concentration at which half the cell population is expected to die) at 6 and 24 h. […]

Data set [2] relates to MDA-MB-231 cells. Nature of the data set: Cellular uptake by nuclear microscopy (STIM, PIXE, EBS), Co as signature. It is filed as cell-based. As for the experimental part:
MDA-MB-231 cells (10^4-10^5 cells) were seeded on 100 nm thick silicon nitride (Si3N4) membranes (Silson Ltd., UK), allowed to adhere, and incubated for 24 h in medium containing Na[o-COSAN] at 50 µM. The culture medium was removed and the monolayer of cells on the membranes was washed with cold PBS, immediately frozen at -80 °C, transferred to a cryostat at -25 °C and allowed to dry overnight for subsequent analysis of [o-COSAN]^− uptake. […] Briefly, a 2.0 MeV focused proton beam of 3 × 4 µm^2 was raster scanned across the target cell on the silicon nitride window, simultaneously delivering images of density by STIM (Scanning Transmission Ion Microscopy), elemental distributions by PIXE (Particle Induced X-ray Emission) and matrix constituents by EBS (Elastic Backscattering Spectroscopy). Spectra recorded and/or extracted from maps in selected regions of the cell allowed Co concentrations to be determined in major cell compartments, such as the cytoplasm and nucleus. At least three cells treated with Na[o-COSAN] at a concentration of 50 µM were analyzed, and Co concentrations were measured using a minimum of five spectra acquired from both the nucleus and cytoplasm regions. The average concentrations for each of these regions were calculated based on the individual spectra. Data acquisition, spectra processing and concentration calculation were performed using the OMDAQ-3 program (Oxford Microbeams Ltd., UK) (http://www.microbeams.co.uk/ Accessed 12-6-2024). Elemental concentrations are expressed as µg/g dry weight.
The uptake of [o-COSAN]^− in single MDA-MB-231 cells was analysed using a combination of nuclear microscopy techniques: STIM, PIXE, and EBS. These techniques allow correlative imaging and quantification of elemental distributions. […] These morphological details were essential for correlating with the elemental distributions obtained from PIXE and assessing localization. […] Therefore, considering the stoichiometry of the carborane cluster [C2B9H11]^−2.in the [o-COSAN]^− molecule, the boron-11 (^11B) content can be estimated. […] This is important information provided by nuclear microscopy. It will be needed for future advanced dosimetry studies, including PBFR.

Data set [3] relates to MDA-MB-231 tumor-bearing mice. As to the kind of experiment: Biodistribution, boron by ICP-OES in MDA-MB-231 xenograft model. Type of data set: in vivo, mice (Balb/cSlc-nu/nu). The following applies: 7.5 mgB/kg intravenously. On the procedure:
MDA-MB-231 tumor-bearing mice (Balb/cSlc-nu/nu, female, 5–6 weeks old, 14–20 g, Sankyo Labo Service Co., Ltd., Japan) were prepared by injecting subcutaneously (s.c.) a suspension of MDA-MB-231 cells (8.0 × 10^5 cells/mouse) directly into the right thigh. The mice were kept on a regular chow diet and water and maintained under 12 h light/dark cycle in an ambient atmosphere. When the tumor diameter became 5 to 7 mm, the mice were injected via the tail vein with a 200 µL PBS solution of Na[o-COSAN] (7.5 mgB/kg). At 1 h after injection, the mice were lightly anesthetized, and blood samples were collected by cardiac puncture. The mice were then sacrificed by cervical dislocation and dissected. Heart, liver, lung, kidney, spleen, muscle, brain and tumor were excised, washed with 0.9% NaCl solution, and weighed. The excised organs were digested with 1 mL of HNO3 at 90 °C for 1 h, and then the digested samples were diluted with distilled water. After filtering through a hydrophobic filter, boron concentration was measured by an inductively coupled plasma optical emission spectroscopy (ICP-OES, iCAP 7400 Duo, Thermo Fisher Scientific Inc., USA). All animal experiments were conducted in accordance with the Guide for the Care and Use of Laboratory Animals approved by the Animal Use Review Board and Ethical Committee of Tokyo Institute of Technology (Permission number: D2021007).
The biodistribution studies provide important preclinical information regarding the identity of the potential target organs and tissues. Na[o-COSAN] (7.5 mgB/kg) was administrated intravenously to MDA-MB-231 breast cancer xenograft model mice, and boron uptake in the target organs was evaluated at 1 and 4 h post-injection.

Data set [4] relates to MDA-MB-231 cells. Nature of the data set: Clonogenic cell survival after proton irradiation (PBFR, 675 keV). It is filed as cell-based. The following applies: for surviving fraction vs control irradiated cells: 24 h incubation, 8 Gy protons, p < 0.05. On the procedure:
(§1) Proton irradiation was performed in air using the external microbeam facility at the Van de Graaff accelerator of the CTN/IST. Briefly, a focused 2.0 MeV proton beam of ∼70 × 70 µm^2 was used and rastered scanned over a cell monolayer placed in a cell plate, positioned prependicular to the proton beam path. The raster scan duration and the irradiation time of 10 s ensured irradiation homogeneity. The maximum achievable scan area is in the range of 0.08–0.13 cm^2 (corresponding to 40% of the total area of one well, 0.32 cm^2, in a 96-well plate). A proton beam current in the pA range was used, corresponding to a proton intensity of 2–6 × 10^6 protons/s. Prior to irradiation, part of the culture medium was removed, as described elsewhere. The proton beam energy was tuned to 675 keV (main resonance energy of the proton-boron nuclear reaction) within the cell layer by controlling the air path length and using Mylar^R foils as attenuators. The details of the irradiation geometry are described above and illustrated in Fig. 2.
MDA-MB-231 cells were seeded in each well of a 6 well plate and incubated for 24 h. Cells were incubated with 50 and 100 µM of Na[o-COSAN], for 24 h at 37 °C, and then irradiated with protons, as described in 2.3.1. After irradiation, fresh medium was added and cells were incubated for 7 days in the same conditions. After 7 days of incubation, the medium was aspirated and cells were fixed and stained with Giemsa’s azur eosin methylene blue solution diluted 5% v/v in buffer solution. Finally, colonies were manually counted. Moreover, a CellProfiler pipeline was used to check the size of the different colonies observed in order to assess whether proton irradiation interfered with the capacity of replication of MDA-MB-231 cells.
The efficiency of [o-COSAN]^- was evaluated after irradiation with 8 Gy of protons in MDA-MB-231 cells. The irradiation with protons was carried out assuming that the proton-boron nuclear reaction resonance energy of 675 keV was reached within the cell monolayer.

The subject of data set [5] is MDA-MB-231 cells. As to the kind of experiment: γ-H2AX foci quantification after proton irradiation. It is filed as cell-based. On the procedure:
as §1
MDA-MB-231 cells were seeded at a density of 10,000 cells per well in an eight-well chamber slide and allowed to attach overnight. Cells were incubated with 50 and 100 µM of Na[o-COSAN], for 24 h at 37 °C, and then irradiated with protons, as described in 2.4. MDA-MB-231 cells were washed three times with PBS and fixed with 4% formaldehyde in PBS for 15 min. After washing with PBS, cells were permeabilized with Triton X-100 (0.5%) at room temperature for 5 min followed by two washing steps with 1% BSA in PBS. Then, cells were incubated with an anti-γ-H2AX primary antibody (mouse anti-γ-H2AX (ser139), Stressgen) at 2 µg/mL for 1 h. […] Cells were analyzed at under ×64 magnification. Several high-quality 2D images were randomly collected in each slide and analyzed using a modified Speckle Count pipeline from the freeware CellProfiler. At least 200 nuclei were analyzed per experiment per dose. […]
The efficiency of [o-COSAN]^- was evaluated after irradiation with 8 Gy of protons in MDA-MB-231 cells. […]

On the set-up of data set [6]: method as in doi:10.1021/cr00010a005, PMID 34944987, PMID 34576098. The following applies: cited from earlier work.
For data set [7], the system named is U87 glioblastoma cells. The arrangement: method as in PMID 36373493. The following applies: protons at 675 keV, dose 9 Gy; cited from earlier work.

On to “sodium salt of cobaltabisdicarbollide [Na[o-COSAN]]”, for which the values for the IC50 in data set [1] (6 h incubation) and in data set [1] (24 h incubation) were 245 ± 94 µM and 137 µM, respectively. For the same substance, in data set [2] (24 h, 50 µM, Fig. 3C), the “Co concentration, nucleus compared to cytoplasm” value was “significantly higher concentrations of Co in the nucleus compared to the cytoplasm”. The “11B content in the nucleus” value in data set [2] (estimated from Co concentration and cluster stoichiometry, 24 h, 50 µM) is recorded as 425 µg/g. Further, the “11B atoms in the nuclear volume of a single cell” value in data set [2] (estimated from Co concentration, 24 h, 50 µM) is “approximately 2.3 × 10^9 atoms”. The “average Co concentration in the nucleus” value in data set [2] (single MDA-MB-231 cells, 24 h incubation with 50 µM, PIXE, dry weight) came out at 153 µg/g. Further, the tumor boron uptake result in data set [3] (1 and 4 h post-injection) was “high and maintained after 4 h”. The “boron accumulation in liver and lungs” value in data set [3] (1 h post-injection) was “significant accumulation of boron”. The “boron accumulation in kidney and spleen” value in data set [3] (1 h post-injection, relative to liver and lungs) is listed as “less”. In addition, in data set [3] (4 h post-injection), the “boron in target organs after 4 h” value was “considerable clearance of boron”. Moreover, the “surviving fraction vs control irradiated cells” value in data set [4] (50 µM) and in data set [4] (100 µM) was “significant decrease” throughout. Moreover, the “decrease of average colony size vs cells irradiated with protons in the absence of compound” value in data set [4] (100 µM, irradiated 8 Gy protons, p < 0.001) is 40%. The “decrease of average colony size vs non-irradiated counterparts” value in data set [4] (100 µM, irradiated 8 Gy protons, p < 0.01) turned out to be 30%. Further, in data set [4] (non-irradiated, vs control conditions), the “effect on surviving fraction of treated non-irradiated cells” value is reported as “minor cytostatic effects”. For the same substance, the “increase in average number of γ-H2AX foci” value in data set [5] (irradiated cells (8 Gy protons) incubated with 50 µM) turned out to be 55%; in data set [5] (irradiated cells (8 Gy protons) incubated with 100 µM), 27%. For the same substance, the “γ-H2AX foci induction without irradiation” value in data set [5] (non-irradiated cells) is listed as “does not induce new γ-H2AX foci”. Moreover, the stability entry in data set [6] is given as “remarkably stable”. Besides, the water solubility entry in data set [6] was “water-soluble”.

For ferrabis(dicarbollide) [Na[o-FESAN]], the “cell viability and survival after proton irradiation” value in data set [7] was “significant loss of cell viability and survival”.

The record behind these values is publication PMC11845649, “Unravelling physical and radiobiological effects of proton boron fusion reaction with anionic metallacarboranes ([o-COSAN]^-) in breast cancer cells” (EJNMMI Research, 2025).
